Holding throughout (format): cell-based, human
Data set [1] relates to Huh7 cells. Put plainly: CCK8 cell viability assay, Huh7. The protocol:
This study aimed to assess the anti-proliferative activity of dolutegravir-1,2,3-triazole derivatives on hepatocellular carcinoma cell lines, Huh7 and hepG2. A comprehensive CCK8 assay was employed to evaluate the impact of these compounds on cell viability, with cells treated at a concentration of 20 μM for 48 h. HRM cells, a normal cell line, were included as a control for comparative analysis.
Human hepatocellular carcinoma cell lines Huh7 and hepG2 were obtained from ATCC (Manassas, VA, USA). Cells were cultured in DMEM or RPMI 1640 medium containing 10% FBS and 1% penicillin/streptomycin at 37 °C with a 5% CO2-humidified atmosphere.
CCK8 assay was used to measure cell viability. Cells with a density of 1 × 10^4 cells/well were seeded on 96-well plates. After adhesion, cells were treated with different diluted compounds or vehicle control DMSO and continued to be cultured for 48 h or 72 h, respectively. Then, CCK8 reagent was added for one hour incubation at 37 °C with 5% CO2. Absorbance was measured using a Microplate spectrophotometer (Thermo, Waltham, MA, USA) at 450 nm. The ratio of cell viability of control was taken as 100%. […] Then, IC50 of compounds were investigated using the prism statistical software 7.0.
For orientation: Tetrazolium dyes change colour on reduction, which living cells bring about.

Data set [2] has as its system Huh7 cells. Put plainly: Apoptosis assay, Annexin V-FITC/PI flow cytometry. The following applies: 48 h. The protocol: Given the observed inhibitory effects of compounds 5e and 5p on cancer cell proliferation, we further investigated their impact on cell apoptosis. Apoptosis analysis was conducted on Huh7 cells treated with varying concentrations of 5e or 5p, utilizing Annexin V-FITC and PI staining, followed by flow cytometry to quantify apoptotic cells.
Huh7 cells were cultured in 6-well plates with a density of 3 × 10^5 cells/well. Different concentrations of 5e or 5p were added to cells for 48 h, respectively. The concentrations were 0, 2, 4, and 8 μM for Huh7 cells. After treatment, Annexin V-FITC Apoptosis Detection Kit (Elabscience, Wuhan, China) was used to determine the apoptotic ratio and FlowJo software v10 was used to analyze.
Background: Flow cytometry measures light scatter and fluorescence of single cells or particles in a stream.

Another data set deals with LC3. As to the kind of experiment: Western blot, LC3. Particulars: 2, 4, 8 μM, 48 h, Huh7, western blot. How it is done: To elucidate the impact of compounds 5e and 5p on the regulation of cell proliferation, we examined the expression levels of key proteins involved in cell growth processes, encompassing autophagy, apoptosis, cell cycle, and DNA damage (Figure 7).
Protein expression levels were measured by western blot. Huh7 cells were cultured in 12-well plates and different concentrations (0, 2, 4, 8 μM) of 5e and 5p were added for 48 h. Proteins were extracted from whole cells using radio-immunoprecipitation assay (RIPA) buffer containing a protease/phosphatase inhibitor cocktail (CST). Then, 10–15% sodium dodecyl sulfate polyacrylamide gel electrophoresis and nitrocellulose membranes (Millipore) were employed to separate and collect proteins. Antibodies used include LC3 (3868s, CST), Caspase3 (9662, CST), cyclin D (2922s, CST), cyclin E (20808s, CST), γH2AX (9718s, CST), β-Catenin (9562s, CST), and β-actin (4967s, CST).
(In western blotting, separated proteins are transferred to a membrane and probed.)

The test system of the next data set is γ-H2AX in HepG2 cells. As to the kind of experiment: γ-H2AX immunofluorescence, HepG2. Particulars: HepG2, 72 h. The protocol: The phosphorylation of H2AX serves as a highly specific and sensitive molecular marker for DNA damage. Through Western blotting, we have confirmed that compounds 5e and 5p induce DNA damage in Huh7 and HepG2 cells. To further substantiate the inhibitory effect of compounds 5e and 5p on Huh7 cells, immunofluorescence was employed to assess their correlation with γ-H2AX.
The HepG2 cells (1 × 10^6) were plated in laser confocal dishes (Nest, Wuxi, China), before Compound 5e and 5p were treated for 72 h. Then, 4% paraformaldehyde was added to each laser confocal dishes for 20 min, after rinsing with PBS. The Triton X-100 was used to penetrate the cells for 20 min. Before the cells were incubated with p-H2AX (Cell Signaling Technology, Danvers, MA, USA) at 1:800 dilution at 4 °C overnight, goat serum was used to block for 30 min. Subsequently, the HepG2 were rinsed with PBS and incubated with Alexa Fluor 488 (Proteintech, Wuhan, China) at a 1:1000 dilution in the dark at room temperature for 1 h. DAPI was added to each laser to stain the cell nucleus for 5 min. Then, the cells were observed under a laser confocal microscope (Nikon, Tokyo, Japan), after rinsing with PBS.

Take `COc1c2n(cc(C(=O)Nc3cccc(-c4cn(-c5cccc(C(F)(F)F)c5)nn4)c3)c1=O)CC1OCCC(C)N1C2=O` (stereo not shown) [Compound 5p]: the “Cell Viability (100%), 20 μM, 48 h, Huh7” value in the data set on Huh7 cells [1] (20 μM, Huh7, CCK8, control taken as 100%) came to 5.93%. Also, the IC50 in the data set with Huh7 cells [1] (48 h, Huh7, CCK8, read-out: half maximal inhibitory concentration (IC50), Huh7) was determined as 5.42 ± 0.43 µM. Moreover, the “apoptosis in Huh7 cells” value is listed as “no significant impact” with Huh7 cells [2] (2 μM), “remarkable apoptosis” in the data set with Huh7 cells [2] (4 μM) and “remarkable apoptosis” in the data set with Huh7 cells [2] (8 μM). In addition, the LC3 protein expression entry in the data set on LC3 was “significant increase in expression”. Further, the “γ-H2AX expression by immunofluorescence” value in the data set with γ-H2AX in HepG2 cells is listed as “increased the expression of γ-H2AX”.
